Assay results from US20220354108A1, “PRESERVATION METHODS USING TREHALOSE WITH OTHER CRYOPROTECTANTS BEING ABSENT FROM THE CRYOPRESERVATION PROTOCOL” (TISSUE TESTING TECHNOLOGIES LLC, priority 2021, published 2022).
Where two headings read alike, the source gives them in different places.

Experiments:
Assay type in all cases: cell-based
[1] = system: bone marrow-derived human mesenchymal stem cells (hMSCs); settings: for hMSC viability compared with DMSO control groups: 0.2 M trehalose
Protocol: Experiments were performed using bone marrow-derived human mesenchymal stem cells (hMSCs) from various commercial sources Human Bone-Marrow Derived Mesenchymal Stem/Stromal Cells (hBM-MSCs) were isolated from normal healthy adult donors (purchased from a commercial source (such as Rooster-Bio) along with the appropriate growth media). Cells were grown according to the manufacturer's instructions).
Prior to the development of the methodology of the present disclosure, the inventors of the instant application previously assessed a nanotechnology for intracellular trehalose delivery developed by Professor Xiaoming He, University of Maryland (Zhang et al., Cold-Responsive Nanoparticle Enables Intracellular Delivery and Rapid Release of Trehalose for Organic-Solvent-Free Cryopreservation, Nano Lett. 2019, 19, 9051-9061; Rao et al., Nanoparticle-Mediated Intracellular Delivery Enables Cryopreservation of Human Adipose-Derived Stem Cells Using Trehalose as the Sole Cryoprotectant, ACS Appl Mater Interfaces, 2015, 7(8), 5017-5028), that they had shown promoted cryopreservation of adipose tissue derived hMSCs, for bone marrow-derived MSCs. Unfortunately, the trehalose nanotechnology failed during these studies, probably due to instability of the trehalose nanoparticles during storage and transport from the University of Maryland to Charleston, S.C. […] Encouraged by these unanticipated results, the range of exogenous trehalose employed was expanded to 0.2-0.8M and compared −1, −5 and −15° C./minute cooling rates.
In the preliminary experiments, the DMSO controls were clearly the best at the 1° C./minute cooling rate (65.3±2.7% of untreated controls), however, the best overall outcome was the 0.2M trehalose group at the −15° C./minute cooling rate (78.9±3.5% of untreated controls).

[2] = system: Pan T-cells; assay: Pan T-cell survival after cryopreservation, live and dead cell counts (trypan blue); settings: trehalose alone, no DMSO; −15° C./minute
Protocol: (§1) Experiments were performed to assess 0.2-0.8M concentrations of extracellular trehalose combined with several concentrations of 0-5% DMSO and compared with the positive control, Cryostor-5, that contains 5% DMSO.
(§2) Pan T-cells were grown and expanded. The T-cells were then harvested and counted. Approximately 10×10^6 cells were used for each sample. Cells were resuspended in the various combinations of DMSO and trehalose in 1 mL and allowed to equilibrate on ice for 20 minutes. Samples were cooled in a CRF at −15° C./minute to −80° C. then moved to liquid nitrogen vapor phase storage for approximately 10 days. After storage, samples were thawed rapidly in a 37° C. water bath, transferred to a 15 mL centrifuge tube and diluted with 10 mL culture medium. An aliquot was taken for cell counting. […] Cells were allowed to recover for 60 minutes in a 37° C. incubator before viability was measured using resazurin dye (300 μl). The cells were left for 3 hours at 37° C. before the plate was read using a fluorescent microplate reader at an excitation wavelength of 544 nm and an emission wavelength of 590 nm. […]
(§3) In FIGS. 3A and 3B, cell survival after cryopreservation at −15° C./minute using combinations of DMSO and trehalose. […] Cell counts, live and dead, (A) as well as metabolic activity (B) was measured. […]

[3] = system: Pan T-cells; assay: Pan T-cell metabolic activity after cryopreservation (resazurin dye); settings: −15° C./minute
Protocol: as §1, §2, §3

| Structure (SMILES) | hMSC viability after cryopreservation [1] | hMSC viability compared with DMSO control groups ([1]; −5° C./minute cooling rate) | hMSC viability compared with DMSO control groups ([1]; −15° C./minute cooling rate) | MSC survival of cryopreservation ([1]; trehalose present only extracellularly (used as negative control)) | protection during cryopreservation compared with control Cryostor-5 [2] | cell metabolic activity, difference from control Cryostor-5 ([3]; 0% DMSO with 0.2M trehalose, p>0.05) | cell metabolic activity, difference from control Cryostor-5 ([3]; 0% DMSO, all trehalose groups except 0.2M) |
| --- | --- | --- | --- | --- | --- | --- | --- |
| C[S+](C)[O-] [DMSO, dimethyl sulfoxide, reference compound] | 65.3±2.7 % of untreated controls | – | – | – | – | – | – |
| OC[C@H]1O[C@H](O[C@H]2O[C@H](CO)[C@@H](O)[C@H](O)[C@H]2O)[C@H](O)[C@@H](O)[C@@H]1O [trehalose] | 78.9±3.5 % of untreated controls | same or higher viability than the DMSO control groups | same or higher viability than the DMSO control groups | survived cryopreservation quite well | adequate protection similar to the control | significant difference | no statistically significant differences |
